Earlier results on 1 molecule are cited in US7605180B2, “Nateglinide-containing preparation” (Ajinomoto Co., Inc., priority 2000, dated 2009).

In data set [1] the test system is blood glucose. As to conditions: oral administration.

Turning to `CC(C)[C@H]1CC[C@H](C(=O)N[C@H](Cc2ccccc2)C(=O)O)CC1` [nateglinide, N-(trans-4-isopropylcyclohexylcarbonyl)-D-phenylalanine], the Water solubility result is on record as “poorly water soluble”. The Blood glucose-lowering effect result in data set [1] is given as “excellent blood glucose-lowering effect”.
